{
  "source": "ChEMBL document CHEMBL1201862",
  "about": "“PubChem BioAssay data set” (2004)",
  "key": {"[1]": {"test": "blockers of HIV-1 envelope-mediated cell-cell fusion – cherry-pick, dose response (AID 652057)", "format": "functional, cell-based"}, "[2]": {"test": "blockers of HIV-1 ZM109 envelope-driven cell-cell fusion – HeLa effector, CEM target cells, luciferase, cherry-pick, dose response (AID 652058)", "format": "functional, cell-based"}, "[3]": {"test": "HIV-1 AD8 envelope cell-cell fusion blockers – cherry-pick, dose response (AID 652062);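 further: potency is for inhibitors of fusion seen as a drop in luminescence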", "format": "functional, cell-based"}, "[4]": {"test": "off-target signal loss in HeLa-CEM21 co-culture – HeLa F-luc CTL cells, cherry-picked, counter-screen for HIV-1 Env fusion inhibitor project, dose response (AID 652040);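 further: potency for signal decrease marking cytotoxic or nonspecific inhibition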", "format": "functional, cell-based"}, "[5]": {"biological_target": "Heat shock protein HSP 90-alpha (Homo sapiens, UniProt P07900)", "format": "functional, organism-based"}, "[6]": {"test_system": "P388", "test": "cells", "format": "functional", "conditions": "Mus musculus"}, "[7]": {"test_system": "P388/ADR", "test": "cells", "format": "functional", "conditions": "Mus musculus"}, "[8]": {"test_system": "SN12K1", "test": "cells", "format": "functional", "conditions": "Homo sapiens"}, "[9]": {"biological_target": "T1, Corticotropin-releasing factor receptor 2/Corticotropin-releasing factor-binding protein (Homo sapiens, UniProt P24387+Q13324)", "T1 sequence (Q13324 whole entry)": "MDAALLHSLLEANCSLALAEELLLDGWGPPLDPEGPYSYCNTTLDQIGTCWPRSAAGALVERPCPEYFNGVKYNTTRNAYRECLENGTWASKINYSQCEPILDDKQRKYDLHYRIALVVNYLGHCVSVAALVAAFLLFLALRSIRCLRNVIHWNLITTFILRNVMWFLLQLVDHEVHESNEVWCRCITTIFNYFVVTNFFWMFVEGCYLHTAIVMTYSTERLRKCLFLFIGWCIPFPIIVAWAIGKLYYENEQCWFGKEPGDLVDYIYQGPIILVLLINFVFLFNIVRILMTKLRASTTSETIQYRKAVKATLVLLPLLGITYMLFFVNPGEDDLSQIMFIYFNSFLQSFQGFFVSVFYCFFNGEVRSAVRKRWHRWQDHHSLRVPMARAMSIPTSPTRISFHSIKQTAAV", "T1 sequence (P24387 whole entry)": "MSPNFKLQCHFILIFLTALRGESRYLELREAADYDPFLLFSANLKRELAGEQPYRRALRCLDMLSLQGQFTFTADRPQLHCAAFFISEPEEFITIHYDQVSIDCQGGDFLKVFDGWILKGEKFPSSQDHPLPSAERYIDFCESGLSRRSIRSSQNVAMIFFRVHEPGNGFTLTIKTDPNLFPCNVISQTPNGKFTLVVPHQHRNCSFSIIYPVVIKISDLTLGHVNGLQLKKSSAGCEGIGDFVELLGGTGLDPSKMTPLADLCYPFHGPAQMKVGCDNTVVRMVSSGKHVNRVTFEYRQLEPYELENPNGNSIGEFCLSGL", "test": "activators of CRF receptor 2 with binding protein – uHTS hits, confirmation (AID 602473)", "format": "functional", "conditions": "read-out: EC50_Mean"}, "[10]": {"biological_target": "T2, Protein skinhead-1 (Caenorhabditis elegans, UniProt P34707)", "T2 sequence (P34707 whole entry)": "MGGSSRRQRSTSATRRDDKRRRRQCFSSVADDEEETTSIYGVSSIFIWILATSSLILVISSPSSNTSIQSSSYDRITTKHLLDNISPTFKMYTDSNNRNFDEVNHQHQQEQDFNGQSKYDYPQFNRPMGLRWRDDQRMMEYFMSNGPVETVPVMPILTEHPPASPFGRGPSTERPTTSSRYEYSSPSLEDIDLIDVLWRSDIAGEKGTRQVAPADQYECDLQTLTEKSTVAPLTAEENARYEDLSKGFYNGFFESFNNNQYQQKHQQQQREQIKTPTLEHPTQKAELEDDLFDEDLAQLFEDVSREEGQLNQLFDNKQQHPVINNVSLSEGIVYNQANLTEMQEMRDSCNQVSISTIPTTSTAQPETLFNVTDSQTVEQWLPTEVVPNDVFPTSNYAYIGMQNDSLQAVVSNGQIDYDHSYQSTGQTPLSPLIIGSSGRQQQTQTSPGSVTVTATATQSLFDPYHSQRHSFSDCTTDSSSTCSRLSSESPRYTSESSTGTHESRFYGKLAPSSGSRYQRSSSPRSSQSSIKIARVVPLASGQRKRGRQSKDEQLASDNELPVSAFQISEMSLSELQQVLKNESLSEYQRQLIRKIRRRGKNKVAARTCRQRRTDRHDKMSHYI", "format": "functional"}, "[11]": {"biological_target": "T1, Corticotropin-releasing factor receptor 2/Corticotropin-releasing factor-binding protein", "test": "Dose Response confirmation of uHTS hits for small molecule antagonists of the CRF-binding protein and CRF-R2 receptor complex.", "format": "functional", "conditions": "read-out: IC50_Mean"}, "[12]": {"test": "non-specific 3'UTR reporter inhibition in Clone20-Shn3RL – cell-based, Renilla luciferase, cherry-picked, counter-screen for Shn3 inhibitor project, dose response (AID 624133)", "format": "functional"}, "[13]": {"test": "reduction of Shn3 3'UTR-driven luciferase in osteoblasts – cell-based, Clone20 osteoblasts, firefly luciferase, cherry-picked, dose response (AID 624132)", "format": "functional"}, "[14]": {"test": "loss of viability in HepG2 cells – cell-based, CellTiter-Glo, cherry-picked, cytotoxicity control for Shn3 inhibitor project, dose response (AID 624134)", "format": "functional"}, "[15]": {"biological_target": "Protein Wnt-3a (Mus musculus, UniProt P27467)", "sequence (P27467 whole entry)": "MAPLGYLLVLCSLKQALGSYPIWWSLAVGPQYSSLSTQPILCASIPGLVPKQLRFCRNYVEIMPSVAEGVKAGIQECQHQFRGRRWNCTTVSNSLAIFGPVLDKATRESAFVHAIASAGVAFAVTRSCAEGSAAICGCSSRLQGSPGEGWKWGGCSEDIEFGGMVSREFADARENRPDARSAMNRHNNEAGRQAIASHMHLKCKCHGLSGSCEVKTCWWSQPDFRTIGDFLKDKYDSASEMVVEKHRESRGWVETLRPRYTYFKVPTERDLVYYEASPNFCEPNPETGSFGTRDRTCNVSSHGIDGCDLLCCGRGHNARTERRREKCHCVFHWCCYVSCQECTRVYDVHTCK", "test": "antagonism of Wnt3a pathway luciferase reporter – Wnt-LIGHT cells, luminescence, selectivity assay for Gli-SUFU antagonist project, dose response (AID 651570);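 further: Wnt-LIGHT reporter cells stimulated with conditioned medium from Wnt3a-producing cells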", "format": "functional", "conditions": "read-out: IC50_Mean"}, "[16]": {"biological_target": "T3, Fatty acid synthase (Homo sapiens, UniProt P49327)", "T3 sequence (P49327 whole entry)": "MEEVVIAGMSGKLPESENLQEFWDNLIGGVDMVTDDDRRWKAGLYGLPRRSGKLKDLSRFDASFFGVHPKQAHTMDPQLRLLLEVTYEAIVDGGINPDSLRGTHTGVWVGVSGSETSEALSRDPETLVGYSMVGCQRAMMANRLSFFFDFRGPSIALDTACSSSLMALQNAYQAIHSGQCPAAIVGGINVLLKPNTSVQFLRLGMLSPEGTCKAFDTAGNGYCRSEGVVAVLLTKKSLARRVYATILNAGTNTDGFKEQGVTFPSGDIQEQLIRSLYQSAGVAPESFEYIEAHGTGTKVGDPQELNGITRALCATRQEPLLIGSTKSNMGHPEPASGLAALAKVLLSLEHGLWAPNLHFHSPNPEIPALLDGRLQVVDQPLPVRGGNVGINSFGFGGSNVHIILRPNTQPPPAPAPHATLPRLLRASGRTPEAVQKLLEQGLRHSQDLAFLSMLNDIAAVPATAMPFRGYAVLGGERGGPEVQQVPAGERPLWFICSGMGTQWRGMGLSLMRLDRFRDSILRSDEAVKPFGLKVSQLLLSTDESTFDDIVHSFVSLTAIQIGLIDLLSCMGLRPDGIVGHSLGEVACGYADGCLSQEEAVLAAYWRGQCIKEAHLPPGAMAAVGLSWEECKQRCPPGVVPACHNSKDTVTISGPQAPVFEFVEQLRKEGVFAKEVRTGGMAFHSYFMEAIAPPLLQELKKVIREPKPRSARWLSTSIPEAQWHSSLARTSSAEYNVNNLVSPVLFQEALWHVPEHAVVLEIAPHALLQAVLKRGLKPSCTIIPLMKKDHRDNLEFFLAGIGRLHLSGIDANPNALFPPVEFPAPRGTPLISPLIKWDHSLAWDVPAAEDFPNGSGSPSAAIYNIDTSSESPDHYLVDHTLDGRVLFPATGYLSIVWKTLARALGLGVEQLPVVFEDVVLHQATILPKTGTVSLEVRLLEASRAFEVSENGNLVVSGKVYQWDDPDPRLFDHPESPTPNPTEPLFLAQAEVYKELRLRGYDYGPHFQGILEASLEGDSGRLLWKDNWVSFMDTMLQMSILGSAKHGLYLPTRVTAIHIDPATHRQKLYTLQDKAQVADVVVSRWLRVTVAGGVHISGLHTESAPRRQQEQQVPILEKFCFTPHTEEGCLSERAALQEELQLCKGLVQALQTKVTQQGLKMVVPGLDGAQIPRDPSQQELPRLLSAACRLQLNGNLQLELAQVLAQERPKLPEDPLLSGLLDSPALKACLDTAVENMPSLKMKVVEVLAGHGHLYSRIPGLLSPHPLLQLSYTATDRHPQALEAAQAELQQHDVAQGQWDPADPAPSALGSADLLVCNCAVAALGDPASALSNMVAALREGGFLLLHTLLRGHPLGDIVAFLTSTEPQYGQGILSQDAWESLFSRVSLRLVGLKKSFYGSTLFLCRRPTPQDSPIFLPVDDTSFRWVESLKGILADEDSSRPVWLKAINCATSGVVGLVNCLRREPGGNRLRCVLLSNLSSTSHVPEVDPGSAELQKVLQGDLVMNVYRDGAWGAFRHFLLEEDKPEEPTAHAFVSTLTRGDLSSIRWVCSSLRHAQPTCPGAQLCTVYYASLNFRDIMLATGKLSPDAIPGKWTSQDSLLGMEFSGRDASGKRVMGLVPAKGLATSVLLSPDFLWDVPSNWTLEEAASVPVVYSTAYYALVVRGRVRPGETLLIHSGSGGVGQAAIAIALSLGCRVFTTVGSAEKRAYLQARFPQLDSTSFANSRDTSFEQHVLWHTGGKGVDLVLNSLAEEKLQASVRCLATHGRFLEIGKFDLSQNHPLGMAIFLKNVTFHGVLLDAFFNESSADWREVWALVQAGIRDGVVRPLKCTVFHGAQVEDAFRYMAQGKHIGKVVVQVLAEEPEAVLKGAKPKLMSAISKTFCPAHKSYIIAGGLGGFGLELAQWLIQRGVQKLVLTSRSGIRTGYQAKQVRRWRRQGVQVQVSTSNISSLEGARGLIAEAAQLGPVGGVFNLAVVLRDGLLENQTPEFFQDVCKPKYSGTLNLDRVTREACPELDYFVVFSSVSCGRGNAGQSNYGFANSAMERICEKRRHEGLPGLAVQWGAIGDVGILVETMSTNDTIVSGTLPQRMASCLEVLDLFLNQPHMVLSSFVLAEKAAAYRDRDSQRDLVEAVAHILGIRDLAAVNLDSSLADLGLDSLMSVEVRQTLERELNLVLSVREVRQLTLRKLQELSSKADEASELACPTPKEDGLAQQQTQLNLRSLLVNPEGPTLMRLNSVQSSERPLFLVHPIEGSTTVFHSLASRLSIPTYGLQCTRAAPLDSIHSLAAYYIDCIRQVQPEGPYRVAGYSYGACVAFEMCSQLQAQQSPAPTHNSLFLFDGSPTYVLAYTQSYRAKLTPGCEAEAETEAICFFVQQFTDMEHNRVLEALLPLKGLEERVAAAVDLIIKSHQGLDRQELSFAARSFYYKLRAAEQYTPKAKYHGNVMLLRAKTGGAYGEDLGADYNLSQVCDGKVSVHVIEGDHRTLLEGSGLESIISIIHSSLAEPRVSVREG", "test": "inhibition of human FAS-TE enzyme activity – biochemical, endpoint fluorescence intensity, uHTS hits, dose response (AID 624327);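 further: fluorescence from hydrolysis of an O-methyl fluorescein acyl ester substrate by the enzyme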", "format": "functional"}, "[17]": {"biological_target": "T3, Fatty acid synthase", "test": "inhibition of human FAS-TE enzyme activity – biochemical, kinetic fluorescence intensity, dose response (AID 624326);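 further: rate of fluorescence rise from hydrolysis of a fluorogenic O-methyl fluorescein ester substrate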", "format": "functional"}, "[18]": {"test": "HEK-293T viability loss after treatment – luminescence, T-cell screen hits, cytotoxicity control for TCR NF-kB inhibitor project, dose response (AID 489026);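 further: cells exposed to compound about 14 hours before the viability readout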", "format": "functional, cell-based"}, "[19]": {"test_system": "Vero", "test": "viability of Vero cells under compound – cytotoxicity control for flavivirus capping enzyme inhibitors (AID 588742)", "format": "functional", "conditions": "Chlorocebus sabaeus"}},
  "note": "Calls of active or inactive are those of the source.",
  "data": [
    {"compound": "CC1(C(=O)N/N=C/c2cc3c(cc2Br)OCO3)CC1(Br)Br", "note": "(stereo not drawn)", "values": [
      {"measurement": "AC50", "setting": "[1]", "result": "3.9 µM (active)"},
      {"measurement": "AC50", "setting": "[2]", "result": "2.59 µM (active)"},
      {"measurement": "AC50", "setting": "[3]", "result": "15.2 µM (active)"},
      {"measurement": "AC50", "setting": "[4]", "result": "9.4 µM (active)"}
    ]},
    {"compound": "C=CCn1c(C)cc(C(=O)CSc2nc(O)c3ccccc3n2)c1C", "values": [
      {"measurement": "AC50", "setting": "[5]", "result": "2.6 µM (active)"}
    ]},
    {"compound": "O=C(NC(Cc1ccc(Br)cc1)C(=O)O)c1ccc(I)cc1", "note": "(stereo not drawn)", "values": [
      {"measurement": "GI50", "setting": "[6]", "result": "> 80.9 µM (inactive)"},
      {"measurement": "GI50", "setting": "[7]", "result": "> 66.1 µM (inactive)"},
      {"measurement": "GI50", "setting": "[8]", "result": "> 100 µM (inactive)"}
    ]},
    {"compound": "O=NN(CCCl)C(=O)N[C@H]1CC[C@H](CC(=O)O)CC1", "values": [
      {"measurement": "GI50", "setting": "[6]", "result": "3.73 µM (inactive)"},
      {"measurement": "GI50", "setting": "[7]", "result": "3.97 µM (inactive)"},
      {"measurement": "GI50", "setting": "[8]", "result": "69 µM (inactive)"}
    ]},
    {"compound": "Cn1nnc2cc(C(=O)NCCC3=CCCCC3)ccc21", "values": [
      {"measurement": "EC50", "setting": "[9]", "result": "> 53 µM (inactive)"},
      {"measurement": "IC50", "setting": "[10]", "result": "> 100 µM (inactive)"},
      {"measurement": "IC50", "setting": "[11]", "result": "> 47.1 µM (inactive)"}
    ]},
    {"compound": "O=C(Cc1ccc(Cl)cc1Cl)Nc1ccncc1", "values": [
      {"measurement": "AC50", "setting": "[12]", "result": "6.34 µM (active)"},
      {"measurement": "AC50", "setting": "[13]", "result": "2.56 µM (active)"},
      {"measurement": "AC50", "setting": "[14]", "result": "42.9 µM (active)"},
      {"measurement": "AC50", "setting": "[3]", "result": "9.95 µM (active)"},
      {"measurement": "IC50", "setting": "[15]", "result": "3.6 µM (active)"}
    ]},
    {"compound": "Cc1ccc([N+](=O)[O-])cc1NC(=O)CCc1ccccc1", "values": [
      {"measurement": "IC50", "setting": "[16]", "result": "14 µM (active)"},
      {"measurement": "IC50", "setting": "[17]", "result": "17.5 µM (active)"}
    ]},
    {"compound": "CC1(C)C2CCC1(C)C(OCCNCCOC(=O)Nc1ccccc1)C2", "note": "(stereo not drawn)", "values": [
      {"measurement": "AC50", "setting": "[1]", "result": "8.49 µM (active)"},
      {"measurement": "AC50", "setting": "[2]", "result": "8.26 µM (active)"},
      {"measurement": "AC50", "setting": "[3]", "result": "27.5 µM (active)"},
      {"measurement": "AC50", "setting": "[4]", "result": "27.6 µM (active)"}
    ]},
    {"compound": "Cc1cc(C)c(C(=O)COC(=O)c2cc([N+](=O)[O-])ccc2NCCO)cc1C", "values": [
      {"measurement": "IC50", "setting": "[16]", "result": "8.07 µM (active)"},
      {"measurement": "IC50", "setting": "[17]", "result": "13.3 µM (active)"}
    ]},
    {"compound": "O=[N+]([O-])c1ccc(C(O)C(CO)N=C(S)Nc2ccccc2)cc1", "note": "(stereo not drawn)", "values": [
      {"measurement": "IC50", "setting": "[16]", "result": "20.8 µM (inactive)"},
      {"measurement": "IC50", "setting": "[17]", "result": "24.8 µM (inactive)"}
    ]},
    {"compound": "O=C(O)c1ccc(S(=O)(=O)c2ccccc2)cc1", "values": [
      {"measurement": "IC50", "setting": "[10]", "result": "> 100 µM (inactive)"}
    ]},
    {"compound": "COc1ccc(OCC(=O)Nc2ccccc2N2CCCCC2)cc1", "values": [
      {"measurement": "AC50", "setting": "[3]", "result": "33.4 µM (active)"},
      {"measurement": "IC50", "setting": "[18]", "result": "> 80 µM (inactive)"}
    ]},
    {"compound": "CCN1C(=O)/C(=C/C=C2\\C=CN(CC)c3ccccc32)SC1=S", "values": [
      {"measurement": "CC50", "setting": "[19]", "result": "> 40 µM (active)"}
    ]}
  ]
}
